Laboratory results taken from patent US9669003B2, “Use of flavone and flavanone derivatives in preparation of sedative and hypnotic drugs” (priority 2012, dated 2017).
Marks after values point to notes of the source that are not given here.

What was measured:
Type in all cases: in vivo
Kunming mice [1] = assay: Influence on hypnosis effect with pentobarbital sodium doses at the threshold (50 mg/kg i.p.); settings: pentobarbital sodium 50 mg/kg i.p. 60 min later, x ± s, n = 10
Excerpt: (§1) 1.1 Animals for experiments: Kunming mice, weighting 18.9˜22.2 g for females, and 20.2˜23.0 g for males, licensed under SCXK-(Ji) 2007-0003, and provided by The experimental animal centre, Jilin University.
(§2) 1.2 Chemicals for experiments: The flavone derivatives provided in Examples 1-41 and the flavanone derivatives provided in Examples 42-71 are all formulated with 0.5% sodium carboxymethyl cellulose as solutions with required concentrations.
(§3) 1.3 Grouping of animals: 6420 animals are employed in the entire experiments and 2140 of the animals are randomly divided into 214 groups by gender, and the […] include: control group, low dosage group for each experimental drugs (25 mg/kg), medium dosage group for each experimental drugs (50 mg/kg), and high dosage group for each experimental drugs (100 mg/kg). Each group has 10 animals and either female or male constitutes half of the group. The groups are used in behavior observation and voluntary action observation. The other 4280 animals are randomly divided into 214 groups by gender respectively (the grouping way is the same with that described above). Each group has 20 animals and either female or male constitutes half of the group. In each group, 10 animals are used in hypnosis experimentations with pentobarbital sodium doses below the threshold, and the other 10 animals are used hypnosis experimentations with pentobarbital sodium doses at the threshold.
1.5.4 Influence on Hypnosis Effect with Mice Pentobarbital Sodium Doses at the Threshold
(§4) The drug is intragastric administered in mice for single time, 2 animals of each group are given drug per round with the dosing interval of 40 min (±5 min). According to the administration round, in 60 min (±5 min) of each round after the drug administration, the animals were intraperitoneally injected 0.3% sodium pentobarbital 50 mg/kg, respectively. Time to fall asleep (sleep latency) and sleep duration of the animals were recorded within under sleep determination standard of loss of righting reflex more than 1 min.
(§5) Number of autonomic activities is detected by leneve Test for homogeneity of variance. If the homogeneity of variance is good (P>0.05), statistical analysis is performed with ANOVA. If ANOVA have statistical significance (P≦0.05), Dunnett's test for multiple comparisons analysis is performed. Number of animals of sleeping mice is applied of ANOVA. Incidence rate of animal asleep is applied of χ2 test. Sleep latency and sleep duration are recorded in min, averaged by group, represented by standard deviation, and undergo statistical analysis using ANOVA.

Kunming mice [2] = assay: Influence on autonomic activity of normal mice (ZIL-2 mice autonomic activity meter, counts within 10 min); settings: intragastric, x ± s, n = 10; for Times of activities in 1 h after drug administration/10 min: 1 h after administration; for Times of activities in 2 h after drug administration/10 min: 2 h after administration; for Times of activities in 24 h after drug administration/10 min: 24 h after administration
Excerpt: as §1, §2, §3
1.4 Experimental instrument and agents: ZIL-2 mice autonomic activity meter, production of Institute of Materia Medica of Chinese Academy of Medical Sciences; pentobarbital sodium, Lot: 100808, 25 g/bottle, Beijing Chemical Reagent Company equipment imported from Germany.
1.5.2 Influence on Autonomic Activity of Normal Mice
After observing the general behavior, in 1 h, 2 h and 24 h after drug administration, respectively, ZIL-2 mice autonomic activity meter is put respectively. Number of autonomic activities of each group of mice is measured within 10 min. Results among groups are compared.
as §5

Kunming mice [3] = assay: Influence on hypnosis effect with pentobarbital sodium doses below the threshold (25 mg/kg i.p.); settings: pentobarbital sodium 25 mg/kg i.p. 60 min later, sleep observed in 30 min, n = 10
Excerpt: as §1, §2, §3
1.5.3 Influence on Hypnosis Effect with Mice Pentobarbital Sodium Doses Below the Threshold
as §4, with “25” for “50”, “Sleep condition” for “Time to fall asleep (sleep latency) and sleep duration”, “observed” for “recorded”, “30 min (under” for “under”, “min). After animals undergo loss of righting reflex, number of the animals is recorded, to calculate sleep percentage.” for “min.”
as §5

[4] = 25 mg/kg intragastric single dose
[5] = 50 mg/kg intragastric single dose
[6] = 100 mg/kg intragastric single dose
[7] = test drug 25 mg/kg intragastric single dose
[8] = test drug 50 mg/kg intragastric single dose
[9] = test drug 100 mg/kg intragastric single dose

Compound | duration of sleep (Kunming mice [1]; [4]) [min] | time to sleep (Kunming mice [1]; [4]) [min] | duration of sleep (Kunming mice [1]; [5]) [min] | time to sleep (Kunming mice [1]; [5]) [min] | duration of sleep (Kunming mice [1]; [6]) [min] | time to sleep (Kunming mice [1]; [6]) [min] | Times of activities in 1 h after drug administration/10 min (Kunming mice [2]; 25 mg/kg) | Times of activities in 2 h after drug administration/10 min (Kunming mice [2]; 25 mg/kg) | Times of activities in 24 h after drug administration/10 min (Kunming mice [2]; 25 mg/kg) | Times of activities in 1 h after drug administration/10 min (Kunming mice [2]; 50 mg/kg) | Times of activities in 2 h after drug administration/10 min (Kunming mice [2]; 50 mg/kg) | Times of activities in 24 h after drug administration/10 min (Kunming mice [2]; 50 mg/kg) | Times of activities in 1 h after drug administration/10 min (Kunming mice [2]; 100 mg/kg) | Times of activities in 2 h after drug administration/10 min (Kunming mice [2]; 100 mg/kg) | Times of activities in 24 h after drug administration/10 min (Kunming mice [2]; 100 mg/kg) | Number of sleeping animals (Kunming mice [3]; [7]) | rate of sleeping (%) (Kunming mice [3]; [7]) | Number of sleeping animals (Kunming mice [3]; [8]) | rate of sleeping (%) (Kunming mice [3]; [8]) | Number of sleeping animals (Kunming mice [3]; [9]) | other results
COc1ccc(-c2cc(=O)c3c(O)cc(OC)c(OC)c3o2)c(OC)c1OC [Example 9, 5-hydroxyl-7,8,2′,3′,4′-penta methoxyl-flavone] | 49.14 ± 16.71 | 3.31 ± 1.81 | 72.31 ± 21.42 | 2.91 ± 1.52 | 85.16 ± 21.97 | 2.12 ± 1.12 | 258.4 ± 60.2 /10 min | 241.1 ± 34.1 /10 min | 314.2 ± 67.9 /10 min | 183.5 ± 45.9 /10 min | 194.3 ± 45.1 /10 min | 317.2 ± 80.9 /10 min | 129.0 ± 40.2 /10 min | 126.3 ± 39.8 /10 min | 323.5 ± 62.4 /10 min | 6 | 60** % | 7 | 70** % | 8 | rate of sleeping (%) (Kunming mice [3]; [9]): 80*** %
COc1ccc(-c2cc(=O)c3c(OC)c(OC)c(OC)cc3o2)cc1OC [Example 10, 5,6,7,3′,4′-penta methoxyl-flavone] | 31.72 ± 21.73 | 5.42 ± 1.58 | 39.41 ± 21.74 | 3.90 ± 1.34 | 59.21 ± 22.41 | 3.81 ± 1.63 | 289.3 ± 50.1 /10 min | 275.6 ± 44.1 /10 min | 315.6 ± 76.3 /10 min | 257.2 ± 61.3 /10 min | 260.1 ± 58.2 /10 min | 325.3 ± 80.2 /10 min | 131.2 ± 30.8 /10 min | 231.6 ± 44.2 /10 min | 304.1 ± 82.5 /10 min | 2 | 20% | 5 | 50** % | 6 | rate of sleeping (%) (Kunming mice [3]; [9]): 60** %
COc1ccc(-c2cc(=O)c3c(O)c(OC)c(OC)c(OC)c3o2)cc1OC [Example 11, 5-hydroxyl-6,7,8,3′,4′-penta methoxyl-flavone] | 47.25 ± 14.42 | 3.42 ± 1.37 | 63.75 ± 20.27 | 3.13 ± 1.21 | 78.54 ± 19.27 | 2.13 ± 1.33 | 243.1 ± 53.5 /10 min | 237.3 ± 45.3 /10 min | 291.7 ± 72.5 /10 min | 187.2 ± 41.4 /10 min | 179.7 ± 46.0 /10 min | 287.8 ± 89.1 /10 min | 115.9 ± 48.5 /10 min | 126.7 ± 48.7 /10 min | 315.2 ± 75.4 /10 min | 5 | 50** % | 6 | 60** % | 8 | rate of sleeping (%) (Kunming mice [3]; [9]): 80*** %
COc1ccc(O)cc1-c1cc(=O)c2c(O)cc(OC)c(OC)c2o1 [Example 12, 5,5′-dihydroxyl-7,8,2′-trimethoxyl-flavone] | 22.71 ± 26.17 | 5.43 ± 2.05 | 28.68 ± 27.56 | 5.01 ± 2.00 | 38.55 ± 23.27 | 4.25 ± 1.16 | 255.9 ± 39.8 /10 min | 284.2 ± 41.7 /10 min | 303.1 ± 69.1 /10 min | 179.5 ± 51.4 /10 min | 168.5 ± 54.3 /10 min | 317.9 ± 55.3 /10 min | 153.7 ± 48.4 /10 min | 135.9 ± 48.7 /10 min | 302.1 ± 89.0 /10 min | 5 | 50** % | 8 | 80*** % | 8 | rate of sleeping (%) (Kunming mice [3]; [9]): 80*** %
